From patent US7989466B2, “Methods to inhibit or augment an inflammatory response” (Cambridge Enterprise Limited, priority 1999, dated 2011)
Marks after values point to notes of the source that are not given here. Positions of bridges follow the written chain, without caps; N, C: chain ends. Non-standard residues stand in square brackets, D forms with d. No end group written: not given here.

Assays:
[1] = tested on: gp120; settings: ns = not significantly different from control; >100 = ED50 not determined
[2] = tested on: MIP1α induced THP-1 migration; test: THP-1 trans-well migration assay, MIP1α as chemoattractant; type: cell-based, human; settings: ns = not significantly different from control
Protocol: (§1) To determine whether an agent inhibits a chemokine-induced activity, such as macrophage recruitment, varying amounts of the agent are mixed with cells in the presence of a known chemoattractant. For example, a range of known concentrations of an agent, e.g., a chemokine peptide, is incubated with a defined number (e.g., 10^4-10^6) of human THP-1 monocyte cells in individual wells of the top compartment of a trans-well plate. Chemokine (such as MCP-1, MIP1α, IL8 or SDF-1α), at a concentration known to cause significant migration of THP-1 cells in the trans-well migration assay, is placed in the lower compartment (FIG. 1). Cells are then incubated at 37° C. for a period sufficient to allow migration, e.g., 4 hours. After incubation, the cells are gently removed from the top of the filter with a pipette, 20 μl of 20 mM EDTA in simple PBS is added into each top well, and incubated for 20 minutes at 4° C. The filter is carefully flushed with media using a gentle flow, and removed. A standard curve consisting of a two-fold dilution series of THP-1 cells (in 29 μl) is prepared to accurately quantify the number of cells that have migrated. Migrated cells are stained with 3 μl of MTT stock dye solution which is added directly into each well (5 mg/ml in RPMI-1640 without phenol red, Sigma Chemical Co.) and incubated at 37° C. for 4 hours. The media is carefully aspirated from each well, and the converted dye is solubilized by 20 μl of DMSO. Absorbance of converted dye is measured at a wavelength of 595 nm using an ELISA plate reader. The number of migrated cells in each well is then determined by interpolation of the standard curve (see also Imai et al., J. Biol. Chem., 272, 15036 (1997)).
(§2) For this assay, THP-1 cells were maintained at a density of 4×10^5 cells per ml in RPMI-1640 supplemented with 10% fetal calf serum+20 μM 2-mercaptoethanol. Chemotaxis was induced in a 96-well disposable chemotaxis chamber fitted with a […] polycarbonate filter (PVP free, ChemoTX, Neuroprobe Inc., Cabin John). Twenty-nine μl of chemoattractant (recombinant human chemokine; 50 ng/ml, i.e., 5.9 nM) or control (100 ng/ml TGFβ) was added to the lower compartment of each well. The framed filter was aligned with the holes in the corner of the filter frame and placed over the wells. Five×10^4 THP-1 cells in 25 μl of RPMI-1640 were added to the upper compartment. Peptides were dissolved in Milli Q water and then serially diluted in culture medium. In most cases, the serially diluted peptides were added to the upper compartment of the chemotaxis chamber. The chamber was incubated at 37° C. in a humidified atmosphere of 5% CO2 for 4 hours.
(§3) After incubation, the cells were gently removed from the top of the filter with a pipette, 20 μl of 20 mM EDTA in PBS was added into each top well, and the mixture was incubated for 20 minutes at 4° C. The filter was then carefully flushed with media using a gentle flow, and removed. A standard curve was prepared to accurately quantify the number of THP-1 cells that had migrated. The curve was based on a two-fold dilution series of THP-1 cells (top standard 100,000 cells in 29 μl). Cells which had migrated, and in separate wells, the cells in the standards, were stained with 3 μl of MTT stock solution which was added directly into each well (5 mg/ml in RPMI 1640 without phenol red, Sigma Chemical Co.) and incubated at 37° C. for 4 hours. The media was carefully aspirated from each well, and the converted dye was solubilized by 20 μl of DMSO. Absorbance of converted dye was measured at a wavelength of 595 nm using an ELISA plate reader. The number of cells that had migrated in each well was determined by interpolation of the standard curve.

[3] = tested on: MCP-1 induced THP-1 migration; test: THP-1 trans-well migration assay, MCP-1 as chemoattractant; type: cell-based, human; settings: ns = not significantly different from control
Protocol: as §1, §2, §3

[4] = tested on: SDF-1α induced THP-1 migration; test: THP-1 trans-well migration assay, SDF-1α as chemoattractant; type: cell-based, human; settings: ns = not significantly different from control
Protocol: as §1, §2, §3

[5] = tested on: HIV; type: cell-based; settings: ns = not significantly different from control
[6] = in vivo; cited from earlier work
[7] = target: T1, Duffy Antigen Receptor for Chemokines (DARC) (Homo sapiens, UniProt Q16570); test: DARC binding: competition with 125I-MCP-1 on red blood cells; settings: for DARC binding: ns = not significantly different from control, >100 = ED50 not determined
T1 sequence (Q16570 1-336): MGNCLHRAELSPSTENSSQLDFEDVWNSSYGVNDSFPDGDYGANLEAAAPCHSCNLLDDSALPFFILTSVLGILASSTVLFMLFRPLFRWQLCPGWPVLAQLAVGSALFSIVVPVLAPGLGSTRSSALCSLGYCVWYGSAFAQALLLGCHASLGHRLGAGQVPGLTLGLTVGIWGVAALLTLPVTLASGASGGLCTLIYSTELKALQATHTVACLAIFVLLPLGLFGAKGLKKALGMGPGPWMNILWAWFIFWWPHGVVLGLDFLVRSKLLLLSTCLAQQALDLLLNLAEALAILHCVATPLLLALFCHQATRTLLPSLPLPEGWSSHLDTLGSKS

[8] = tested on: chemokine receptors on THP-1 cells; test: Binding to chemokine receptors on THP-1 cells; parameters: species or system human
Protocol: In general, specific binding is calculated as the amount of labeled agent bound in the absence of cold competitor minus the amount of labeled agent bound in the presence of cold competitor. The amount of specific binding in the presence of varied amounts of cold competitor can be used to determine the association constant for the agent, as well as the number of binding sites on the cell for the agent, using, for example, Scatchard Analysis. The agent may be labeled by radiolabeling (e.g., iodination) or with a suitable biochemical tag (e.g., biotin) or by addition of a photoactivatable crosslinking group. Agents with an association constant lower than 100 μM (i.e., which bind more strongly than an agent with an association constant of 100 μM) and which have at least about 2,500, preferably at least about 10,000, and more preferably greater than 25,000, binding sites per cell for at least one cell type which expresses a chemokine receptor, fall under the scope of this invention. THP-1 cells have at least about 5,000 MCP-1 receptors/cell.
For example, monocytes are suspended in RPMI 1640 medium without bicarbonate containing 0.2% bovine serum albumin and 0.1% azide. Radiolabeled chemokine peptide is incubated with 1-2×10^6 cells, e.g., THP-1 cells, in the presence or absence of increasing concentrations of unlabeled chemokine (MCP-1, MCP-3, MCP-4, RANTES or MIP-1α) for 15 minutes at 37° C. in a 96-well plate in a final volume of 0.2 ml (e.g., PBS+0.5% FCS). After the incubation, 0.5 ml of ice-cold wash buffer (20 mM Tris, 0.5 M NaCl, pH 7.4) is added, and cells are collected onto a polyethyleneimine-treated Whatman GF/C filter using a Brandall cell harvester. Filters are washed with 4 ml of cold wash buffer, and the radioactivity bound to the filters is counted in a γ-counter.
For Scatchard analysis, the absorbance readings at 450 nm were calibrated, by reference to a standard curve in which known amounts of labeled peptide were coupled to derivatized sepharose beads (activated thiol-sepharose 4B; Sigma T8512) via the cysteine residue in each peptide. Briefly, known amounts (1 fmol to 1 pmol) of biotin-labeled peptide were incubated with 1 mg of activated thiol-sepharose beads in 100 μl of PBS at 37° C. for 1 hour. Free activated thiols were then blocked by addition of cysteine to a final concentration of 10 mM. The peptide-conjugated beads were then washed 5 times in PBS and treated exactly as for the cells described above. The absorbance at 450 nm obtained when a known amount of peptide was coupled to the beads was used to construct a standard curve which was used to convert the absorbance readings obtained with cells into number of molecules of labeled peptide which had bound.

[9] = tested on: chemokine-induced THP-1 migration; test: THP-1 trans-well migration assay, panel of chemokines (MCP-1, MIP1α, IL-8, SDF1α); type: cell-based, human; settings: MCP-1, MIP1α, IL-8, SDF1α
[10] = tested on: RANTES induced THP-1 migration; test: THP-1 trans-well migration assay, RANTES as chemoattractant; type: cell-based, human; settings: tripeptide at 100 μM, mean ± range; dash = no statistically significant reduction in migration
Protocol: To determine whether an agent inhibits a chemokine-induced activity, such as macrophage recruitment, varying amounts of the agent are mixed with cells in the presence of a known chemoattractant. For example, a range of known concentrations of an agent, e.g., a chemokine peptide, is incubated with a defined number (e.g., 10^4-10^6) of human THP-1 monocyte cells in individual wells of the top compartment of a trans-well plate. Chemokine (such as MCP-1, MIP1α, IL8 or SDF-1α), at a concentration known to cause significant migration of THP-1 cells in the trans-well migration assay, is placed in the lower compartment (FIG. 1). […] A standard curve consisting of a two-fold dilution series of THP-1 cells (in 29 μl) is prepared to accurately quantify the number of cells that have migrated. […] Absorbance of converted dye is measured at a wavelength of 595 nm using an ELISA plate reader. The number of migrated cells in each well is then determined by interpolation of the standard curve (see also Imai et al., J. Biol. Chem., 272, 15036 (1997)). […]
After incubation, the cells were gently removed from the top of the filter with a pipette, 20 μl of 20 mM EDTA in PBS was added into each top well, and the mixture was incubated for 20 minutes at 4° C. […] A standard curve was prepared to accurately quantify the number of THP-1 cells that had migrated. […]

[11] = tested on: TGF-beta receptor of THP-1 cells; test: Binding of biotinylated TGF-beta peptides to THP-1 cells; parameters: species or system human; settings: for EC50: biotinylated peptide, read-out: ED50 of binding to the TGF-beta receptor of THP-1 cells

CC[C@H](C)[C@H](NC(=O)[C@H](CCCNC(=N)N)NC(=O)[C@H](CCCNC(=N)N)NC(=O)[C@H](Cc1ccc(O)cc1)NC(=O)[C@@H](N)CO)C(=O)N[C@H](C(=O)N[C@@H](CO)C(=O)N[C@@H](CO)C(=O)N[C@@H](CCCCN)C(=O)N[C@@H](CS)C(=O)O)[C@@H](C)O
gp120 ED-50 [1]: 60 µM
MIPIa ED-50 [2]: ns
MCP-1 ED-50 [3]: ns
SDF1a ED-50 [4]: ns
% virus inhibition [5]: ns

NCC[C@H](O)C(=O)N[C@@H]1C[C@H](N)[C@@H](O[C@H]2O[C@H](CN)[C@@H](O)[C@H](O)[C@H]2O)[C@H](O)[C@H]1O[C@H]1O[C@H](CO)[C@@H](O)[C@H](N)[C@H]1O [amikacin]
T1/2 [6]: about 2 hours
Vd [6]: 0.27 L/kg
urinary excretion [6]: 98%

=cvaekpsksstirrysc= ([dC][dV][dA][dE][dK][dP][dS][dK][dS][dS][dT][dI][dR][dR][dY][dS][dC]; disulfide 1-17 (inferred); not fully specified (C-terminus); printed as =cvaekpsksstirrysc=)
gp120 ED-50 [1]: ns
MIPIa ED-50 [2]: ns
MCP-1 ED-50 [3]: ns
SDF1a ED-50 [4]: ns
% virus inhibition [5]: ns

CSKPGV
gp120 ED-50 [1]: ns
MIPIa ED-50 [2]: ns
MCP-1 ED-50 [3]: ns
SDF1a ED-50 [4]: ns
% virus inhibition [5]: ns
DARC binding [7]: ns

CSYRRITSSKSPKEAVC
MIPIa ED-50 [2]: ns
MCP-1 ED-50 [3]: ns
SDF1a ED-50 [4]: ns
% virus inhibition [5]: ns
DARC binding [7]: ns

DYFETSSQC
gp120 ED-50 [1]: ns
MIPIa ED-50 [2]: ns
MCP-1 ED-50 [3]: ns
SDF1a ED-50 [4]: ns
% virus inhibition [5]: ns
DARC binding [7]: ns

HLKILNTPNCALQIV [Pep2[SDF1]]
AVERAGE ED50, peptide 2 family: estimated ka for binding to THP-1 cells [8]: 1-10^e μM
gp120 ED-50 [1]: 35 µM
MIPIa ED-50 [2]: 40 =M
MCP-1 ED-50 [3]: 10 =M
SDF1a ED-50 [4]: 7 =M
effect on THP-1 migration induced by the chemokine panel, in words [9]: potent pan-chemokine antagonist properties
DUFFY SELECTIVITY, peptide 2 family ([7]; ka for binding to red blood cells divided by the ka for binding THP-1 cells): <1^d

SES
percentage inhibition of migration induced by RANTES [10]: 87 ± 4%

SYRRI
gp120 ED-50 [1]: ns
MIPIa ED-50 [2]: ns
MCP-1 ED-50 [3]: ns
SDF1a ED-50 [4]: ns
% virus inhibition [5]: ns
DARC binding [7]: ns

TSSKC
gp120 ED-50 [1]: ns
MIPIa ED-50 [2]: ns
MCP-1 ED-50 [3]: ns
SDF1a ED-50 [4]: ns
% virus inhibition [5]: ns
DARC binding [7]: ns

biotinylated HEPKGYHANFC [Biotinylated T2]
receptor character (agonist, antagonist, neutral) [11]: weak receptor antagonist
EC50 [11]: 30 µM

biotinylated LYIDFRQDLGWKW (also: biotinylated, site not given here) [Biotinylated T1]
receptor character (agonist, antagonist, neutral) [11]: receptor neutral agent
EC50 [11]: 18 µM

vgpkscqsstefyd
gp120 ED-50 [1]: ns
MIPIa ED-50 [2]: ns
MCP-1 ED-50 [3]: ns
SDF1a ED-50 [4]: ns
% virus inhibition [5]: ns
DARC binding [7]: ns
